Data: ChEMBL document CHEMBL4699599, “Discovery of a Beetroot Protease Inhibitor to Identify and Classify Plant-Derived Cystine Knot Peptides” (J Nat Prod, 2020)
Positions of bridges follow the written chain, without caps; N, C: chain ends. Residues, ends and D or L forms follow the SMILES beside them.

Molecular target: T1, Serine protease 1 (Bos taurus) (UniProt P00760)
T1 sequence (whole entry): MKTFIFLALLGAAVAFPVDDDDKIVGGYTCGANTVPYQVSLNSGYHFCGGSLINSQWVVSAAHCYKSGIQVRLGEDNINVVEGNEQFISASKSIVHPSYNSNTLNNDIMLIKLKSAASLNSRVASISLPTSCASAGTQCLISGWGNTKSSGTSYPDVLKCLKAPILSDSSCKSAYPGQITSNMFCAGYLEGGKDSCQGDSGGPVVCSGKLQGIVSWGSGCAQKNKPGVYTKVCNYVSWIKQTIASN
Assay: Inhibition of bovine beta-trypsin using BAPNA as substrate assessed as […]

Row | Structure (SMILES) | Activity [nM]
1 | CC[C@H](C)[C@@H]1NC(=O)[C@H](C)NC(=O)CNC(=O)[C@H](CO)NC(=O)[C@@H]2CCCN2C(=O)[C@H](CO)NC(=O)[C@@H](NC(=O)[C@@H](N)CCCCN)CSSC[C@@H]2NC(=O)[C@@H]3CSSC[C@@H](C(=O)N[C@@H](CCC(N)=O)C(=O)O)NC(=O)[C@H](C(C)C)NC(=O)[C@H](Cc4ccccc4)NC(=O)[C@H]([C@@H](C)CC)NC(=O)[C@H](CCCNC(=N)N)NC(=O)[C@H](CC(C)C)NC(=O)[C@H]([C@@H](C)CC)NC(=O)[C@@H]4CCCN4C(=O)[C@H](Cc4cnc[nH]4)NC(=O)[C@@H]4CCCN4C(=O)[C@H](C(C)C)NC(=O)[C@H](CSSC[C@H](NC1=O)C(=O)N[C@@H](CO)C(=O)NCC(=O)N[C@@H](Cc1ccccc1)C(=O)NCC(=O)N1CCC[C@H]1C(=O)N1CCC[C@H]1C(=O)N[C@@H](CCC(=O)O)C(=O)N[C@@H](CCC(N)=O)C(=O)N3)NC(=O)[C@H](C)NC(=O)CNC(=O)[C@H](CO)NC2=O (H-KCSPSGAICSGFGPPEQCCSGACVPHPILRIFVCQ-OH; disulfide 2-19, 9-23, 18-34) | 185
2 | CC[C@H](C)[C@@H]1NC(=O)[C@H](CCCNC(=N)N)NC(=O)[C@H](CC(C)C)NC(=O)[C@H](CCCNC(=N)N)NC(=O)[C@@H]2CCCN2C(=O)[C@@H]2CCCN2C(=O)[C@H](Cc2cnc[nH]2)NC(=O)[C@@H]2CCCN2C(=O)[C@H](C(C)C)NC(=O)[C@@H]2CSSC[C@@H]3NC(=O)[C@H]([C@@H](C)CC)NC(=O)[C@H](CCC(N)=O)NC(=O)[C@H](CC(=O)O)NC(=O)[C@H]([C@@H](C)O)NC(=O)[C@H](CCCCN)NC(=O)[C@H](C)NC(=O)[C@@H](NC(=O)[C@H](CCC(=O)O)NC(=O)[C@H](CCC(=O)O)NC(=O)[C@H](CC(=O)O)NC(=O)[C@@H](N)CCC(=O)O)CSSC[C@H](NC(=O)[C@H](CSSC[C@@H](C(=O)N[C@@H](C)C(=O)O)NC(=O)[C@H](C(C)C)NC(=O)[C@H](Cc4ccccc4)NC1=O)NC(=O)[C@H](Cc1ccc(O)cc1)NC(=O)[C@H](CC(N)=O)NC(=O)[C@@H]1CCCN1C(=O)[C@H](C)NC(=O)[C@H](CC(N)=O)NC(=O)[C@@H]1CCCN1C(=O)[C@@H]1CCCN1C3=O)C(=O)N[C@@H](CO)C(=O)NCC(=O)N[C@@H](CO)C(=O)N2 (H-EDEECAKTDQICPPNAPNYCCSGSCVPHPPRLRIFVCA-OH; disulfide 5-21, 12-25, 20-37) | 536
